Source: patent US7071180B2, “Certain arylaliphatic and heteroaryl-aliphatic piperazinyl pyrazines and their use in the treatment of serotonin-related diseases” (Biovitrum AB, priority 1999, dated 2006)
Structures can show the parent of a compound that is named as a salt.

SMILES	melting point
CC(=O)Nc1cccc(OCCOc2nccnc2N2CCNCC2)c1 (as salt: maleate) [Example 119, 2-[2-(3-Acetamidophenoxy)ethoxy]-3-(1-piperazinyl)pyrazine]	154 to 155 °C
OCCOc1ccc(OCCOc2nccnc2N2CCNCC2)cc1 (as salt: maleate) [Example 120, 2-[4-(2-{[3-(1-piperazinyl)-2-pyrazinyl]oxy}ethoxy)phenoxy]ethanol]	127 to 129 °C
c1cncc(CCCOc2nccnc2N2CCNCC2)c1 (as salt: maleate) [Example 126, 2-(1-piperazinyl)-3-[3-(3-pyridinyl)propoxy]pyrazine]	128 to 130 °C
c1cc(CCCOc2nccnc2N2CCNCC2)ccn1 (as salt: maleate) [Example 127, 2-(1-piperazinyl)-3-[3-(4-pyridinyl)propoxy]pyrazine]	90 to 91 °C
Cc1cccc(CCCOc2nccnc2N2CCNCC2)n1 (as salt: maleate) [Example 128, 2-[3-(6-Methyl-2-pyridinyl)propoxy]-3-(1-piperazinyl)pyrazine]	134 to 136 °C
c1cc(OCCOc2nccnc2N2CCNCC2)c2ccncc2c1 (as salt: maleate) [Example 134, 2-(5-Isoquinolinyloxy)ethyl 3-(1-piperazinyl)-2-pyrazinyl ether]	178 to 180.5 °C
c1cc(OCCOc2nccnc2N2CCNCC2)c2cccnc2c1 (as salt: maleate) [Example 135, 2-(5-Quinolinyloxy)ethyl 3-(1-piperazinyl)-2-pyrazinyl ether]	132 to 135 °C
c1cnc2ccc(OCCOc3nccnc3N3CCNCC3)cc2c1 (as salt: maleate) [Example 136, 2-(6-Quinolinyloxy)ethyl 3-(1-piperazinyl)-2-pyrazinyl ether]	167 to 169 °C
c1cnc2cc(OCCOc3nccnc3N3CCNCC3)ccc2c1 (as salt: maleate) [Example 137, 2-(7-Quinolinyloxy)ethyl 3-(1-piperazinyl)-2-pyrazinyl ether]	156 to 158 °C
COc1ccc(C)cc1OCCOc1nccnc1N1CCNCC1 (as salt: maleate) [Example 144, 2-[2-(2-Methoxy-5-methylphenoxy)ethoxy]-3-(1-piperazinyl)pyrazine]	148 to 149 °C
Nc1cccc2ccc(OCCOc3nccnc3N3CCNCC3)cc12 (as salt: maleate) [Example 145, 7-(2-{[3-(1-piperazinyl)-2-pyrazinyl]oxy}ethoxy)-1-naphthylamine]	120 °C (dec.)
c1ccc(OCCOc2nccnc2N2CCNCC2)nc1 (as salt: maleate) [Example 152, 2-(2-Pyridyloxy)ethyl 3-(1-piperazinyl)-2-pyrazinyl ether]	130 to 132 °C
c1ccc2c(OCCOc3nccnc3N3CCNCC3)csc2c1 (as salt: maleate) [Example 156, 2-[2-(1-Benzothien-3-yloxy)ethoxy]-3-(1-piperazinyl)pyrazine]	147 to 149 °C
CC1(C)Cc2cccc(OCCOc3nccnc3N3CCNCC3)c2O1 (as salt: maleate) [Example 158, 2-(2,3-Dihydro-2,2-dimethyl-7-benzofuranyloxy)ethyl 3-(1-piperazinyl)-2-pyrazinyl ether]	156 to 157 °C
c1cc(OCCOc2nccnc2N2CCNCC2)c2ncoc2c1 (as salt: maleate) [Example 159, 2-(1,3-Benzoxazol-4-yloxy)ethyl 3-(1-piperazinyl)-2-pyrazinyl ether]	191 to 193 °C
c1cncc(OCCOc2nc3ccccc3nc2N2CCNCC2)c1 (as salt: maleate) [Example 162, 2-[2-(3-Pyridinyloxy)ethoxy]-3-(1-piperazinyl)quinoxaline]	137 to 139 °C
Fc1cc2nc(OCCOc3cccnc3)c(N3CCNCC3)nc2cc1F (as salt: maleate) [Example 163, 2-[2-(3-Pyridinyloxy)ethoxy]-3-(1-piperazinyl)-6,7-difluoroquinoxaline]	110 to 115 °C
Clc1cc2nc(OCCOc3cccnc3)c(N3CCNCC3)nc2cc1Cl (as salt: maleate) [Example 164, 2-[2-(3-Pyridinyloxy)ethoxy]-3-(1-piperazinyl)-6,7-dichloroquinoxaline]	187 to 189 °C
c1cncc(OCCOc2nc3cscc3nc2N2CCNCC2)c1 (as salt: maleate) [Example 165, 2-[2-(3-Pyridinyloxy)ethoxy]3-(1-piperazinyl)thieno[3,4-b]pyrazine]	152 to 156 °C
c1cc2c(c(OCCOc3nccnc3N3CCNCC3)c1)OCC2 (as salt: maleate) [Example 186, 2-(2,3-Dihydrobenzofuran-7-yloxy)ethyl 3-(1-piperazinyl)-2-pyrazinyl ether]	149 to 154 °C

SMILES	melting point
Clc1ccc(OCCOc2nccnc2N2CCNCC2)cn1 (as salt: maleate) [Example 203, 2-{2-[(6-Chloro-3-pyridinyl)oxy]ethoxy}-3-(1-piperazinyl)pyrazine]	145.9 to 146.3 °C
COc1ccc(OCCOc2nccnc2N2CCNCC2)cn1 (as salt: maleate) [Example 204, 2-{2-[(6-Methoxy-3-pyridinyl)oxy]ethoxy}-3-(1-piperazinyl)pyrazine]	151.8 to 152.6 °C
c1cncc(OCCOc2nsnc2N2CCNCC2)c1 (as salt: maleate) [Example 209, 1-{4-[2-(3-Pyridinyloxy)ethoxy]-1,2,5-thiadiazol-3-yl}piperazine]	116 to 118 °C
COc1ccccc1CCCOc1nccnc1N1CCNCC1 (as salt: maleate) [Example 211, 2-[3-(2-Methoxyphenyl)propoxy]-3-(1-piperazinyl)pyrazine]	132 to 133 °C
COc1ccccc1/C=C/COc1nccnc1N1CCNCC1 (as salt: maleate) [Example 212, 2-{[(2E)-3-(2-Methoxyphenyl)-2-propenyl]oxy}-3-(1-piperazinyl)pyrazine]	136 °C (dec.)
c1ccc2c(c1)CCC(COc1nc3ccccc3nc1N1CCNCC1)O2 (stereo not drawn) (as salt: salt) [Example 168, 2-(3,4-Dihydro-2H-chromen-2-ylmethoxy)-3-(1-piperazinyl)quinoxaline]	202 to 204 °C
COc1cccc(OCCOc2nccnc2N2CCNCC2)c1 (as salt: toluenesulfonate) [Example 102, 2-[2-(3-Methoxyphenoxy)ethoxy]-3-(1-piperazinyl)pyrazine]	131 to 133 °C
Fc1cc(F)cc(OCCOc2nccnc2N2CCNCC2)c1 (as salt: toluenesulfonate) [Example 114, 2-[2-(3,5-Difluorophenoxy)ethoxy]-3-(1-piperazinyl)pyrazine]	118 to 119 °C
Brc1cccc(OCCOc2nccnc2N2CCNCC2)c1 [Example 37, 2-(3-Bromophenoxy)ethyl 3-(1-piperazinyl)-2-pyrazinyl ether]	62 to 63 °C
Clc1ccc(OCCOc2nc3ccccc3nc2N2CCNCC2)cc1 [Example 39, 2-[2-(4-Chlorophenoxy)ethoxy]-3-(1-piperazinyl)quinoxaline]	108 to 112 °C
c1cc(OCCOc2nccnc2N2CCNCC2)c2c(c1)OCCO2 [Example 79, 2-(2,3-Dihydro-1,4-benzodioxin-5-yloxy)ethyl 3-(1-piperazinyl)-2-pyrazinyl ether]	98 to 99 °C
Fc1cccc(F)c1OCCOc1nccnc1N1CCNCC1 [Example 83, 2-(2,6-Difluorophenoxy)ethyl 3-(1-piperazinyl)-2-pyrazinyl ether]	101 to 102 °C
FC(F)(F)c1ccccc1OCCOc1nccnc1N1CCNCC1 [Example 91, 2-(2-Trifluoromethylphenoxy)ethyl 3-(1-piperazinyl)-2-pyrazinyl ether]	79 to 80 °C
c1ccc(-c2ccccc2OCCOc2nccnc2N2CCNCC2)cc1 [Example 97, 2-[(1,1′Biphenyl)-2-yloxy]ethyl 3-(1-piperazinyl)-2-pyrazinyl ether]	101 to 103 °C
c1cnc2c(OCCOc3nccnc3N3CCNCC3)cccc2c1 [Example 138, 2-(8-Quinolinyloxy)ethyl 3-(1-piperazinyl)-2-pyrazinyl ether]	98 to 100 °C
c1cnc(N2CCNCC2)c(OCCOc2ccc3cc[nH]c3c2)n1 [Example 142, 6-(2-{[3-(1-piperazinyl)-2-pyrazinyl]oxy}ethoxy)-1H-indole]	111 to 113 °C
O=[N+]([O-])c1ccc2c(c1)OC(COc1nccnc1N1CCNCC1)CO2 (stereo not drawn) [Example 146, 2-(7-Nitro-2,3-dihydro-1,4-benzodioxin-2-ylmethoxy)-3-(1-piperazinyl)pyrazine]	133 to 135 °C
c1ccc2nc(N3CCNCC3)c(OCCOc3cncnc3)nc2c1 [Example 166, 2-[2-(5-Pyrimidinyloxy)ethoxy]-3-(1-piperazinyl)quinoxaline]	115 to 117 °C
CNc1ccc2cccc(OCCOc3nccnc3N3CCNCC3)c2n1 [Example 181, N-Methyl-8-(2-{[3-(1-piperazinyl)-2-pyrazinyl]oxy}ethoxy)-2-quinolinamine]	54 to 56.5 °C
